Assays:
Hs294T (human melanoma) = experiment: In vitro cytotoxicity test, SRB assay, 72 h incubation with compound; type: cell-based; conditions: for IC50: Hs294T human melanoma, SRB, 72 h; for SI Hs294T: selectivity coefficient, BALB/3T3 versus Hs294T
Method: (§1) In vitro cytotoxicity tests were performed according to the procedure described below. […] The solvent for further dilutions was a culture medium.
(§2) The experiments were repeated at least 3 times.

[1] = tested on: MV-4-11 (human biphenotypic leukaemia); experiment: In vitro cytotoxicity test, MTT assay, 72 h incubation with compound; type: cell-based; conditions: for IC50: MV-4-11 human biphenotypic leukaemia, MTT, 72 h; for SI MV-4-11: selectivity coefficient, BALB/3T3 versus MV-4-11
Method: as §1, §2
After 4 hours of incubation at 37° C., 80 μL of lysis buffer was added to each well.

[2] = tested on: BALB/3T3 (normal murine fibroblasts); experiment: In vitro cytotoxicity test on normal cells, SRB assay, 72 h incubation with compound; type: cell-based; conditions: read-out: IC50 BALB/3T3
Method: (§3) Normal murine BALB/3T3 fibroblasts were also used in the tests for determining the selectivity coefficients of the compounds used in the assays.
as §1, §2

B16-F0 (murine melanoma) = experiment: In vitro cytotoxicity test, SRB assay, 72 h incubation with compound; type: cell-based; conditions: for IC50: B16-F0 murine melanoma, SRB, 72 h; for SI B16-F0: selectivity coefficient, BALB/3T3 versus B16-F0
Method: as §1, §2

[3] = tested on: LoVo (drug-sensitive human colon cancer); experiment: as above; type: cell-based; conditions: for IC50: LoVo drug-sensitive human colon cancer, SRB, 72 h; for SI LoVo: selectivity coefficient, BALB/3T3 versus LoVo
Method: as §1, §2

[4] = tested on: LoVo/DX (drug-resistant human colon cancer); experiment: as above; type: cell-based; conditions: for IC50: LoVo/DX drug-resistant human colon cancer, SRB, 72 h; for RI: drug resistance coefficient, LoVo/DX versus LoVo, 4320 min; for SI LoVo/DX: selectivity coefficient, BALB/3T3 versus LoVo/DX
Method: as §1, §2

[5] = tested on: MCF-7 (human breast cancer); experiment: as above; type: cell-based; conditions: for IC50: MCF-7 human breast cancer, SRB, 72 h; for SI MCF-7: selectivity coefficient, BALB/3T3 versus MCF-7
Method: as §1, §2

[6] = In vitro cytotoxicity test on normal cells, SRB assay, 72 h incubation with compound; type: cell-based; conditions: mouse, balb/3t3 cells, normal murine fibroblasts, read-out: IC50 BALB/3T3
Method: as §3, §1, §2

cancer cells = experiment: In vitro cytotoxicity tests, summary statements over the cancer cell lines; type: cell-based; conditions: in words; for anti-proliferative effect compared to the parent compound: versus salinomycin
Method: The following cancer cell lines were used in in vitro studies: • B16-F0 (murine melanoma), • Hs294T (human melanoma), • LoVo (drug-sensitive human colon cancer), • LoVo/DX (drug-resistant human colon cancer), • MCF-7 (human breast cancer), • MV-4-11 (human biphenotypic leukaemia).
as §3
In vitro cytotoxicity tests were performed according to the procedure described below. Stock solutions of the test compounds at 10 mg/mLh were prepared for each experiment ex tempore by dissolving 1 mg of the preparation in 100 μL of dimethylsulfoxide (DMSO). The solvent for further dilutions was a culture medium. Compounds were tested at concentration ranges of 100 to 0.00001 μg/mLh (for the B16-F0 and Hs294T cell lines) and 100 to 0.1 μg/mLh (for the LoVo, LoVo/DX, MCF-7, MV-4-11 and BALB/3T3 cell lines).
An MTT tetrazolium salt reduction assay [as per: Wietrzyk et al., Anti-cancer drugs, 2007, 18, 447-457] was performed for MV-4-11 cells (human biphenotypic leukaemia) to evaluate the metabolic activity of cancer cells. On the other hand, to determine the anti-proliferative activity of all tested compounds against B16-F0 (murine melanoma), Hs294T (human melanoma), LoVo (drug-sensitive human colon cancer), LoVo/DX (drug-resistant human colon cancer), MCF-7 (human breast cancer) and BALB/3T3 (normal mouse fibroblasts) cell lines, the SRB colorimetric assay was used [as per: Skehan et al., Journal of the National Cancer Institute, 1990, 82, 1107-1112] measuring the inhibition of target cell proliferation based on the amount of cellular protein measured. In each experiment, samples containing specific concentrations of the test compound were applied to 96-well plates in triplicate. The experiments were repeated at least 3 times.
When calculating the mean absorbance value for a set of wells (untreated cells, cells treated with a specific compound at a specific concentration, control of medium alone), outliers were rejected using a 10% coefficient of variation CV.

[7] = tested on: advanced head, neck, breast and ovarian cancer; conditions: small group of patients with advanced head; cited from earlier work

SMILES	IC50 (Hs294T (human melanoma))	SI Hs294T (Hs294T (human melanoma))	IC50 [1]	SI MV-4-11 [1]	CC50 [2]	IC50 (B16-F0 (murine melanoma); Mus musculus, B16F0)	SI B16-F0 (B16-F0 (murine melanoma))	IC50 (Hs294T (human melanoma); Hs 294T)	IC50 [3]	SI LoVo [3]	IC50 [4]	RI [4]	SI LoVo/DX [4]	IC50 ([5]; MCF7)	SI MCF-7 [5]	IC50 ([1]; MV4-11)	CC50 at 72 h [6]	anti-proliferative effect compared to the parent compound (cancer cells)	further results
CC[C@@H](C(=O)[C@@H](C)[C@@H](O)[C@H](C)[C@@H]1O[C@@H]([C@@H](CC)C(=O)O)CC[C@@H]1C)[C@H]1O[C@]2(C=C[C@H](NC(=O)C(C)C)[C@]3(CC[C@@](C)([C@H]4CC[C@](O)(CC)[C@H](C)O4)O3)O2)[C@H](C)C[C@@H]1C [(10 epi), reference compound]	4000 nM	0.95	400 nM	9.5	3800 nM														
CC[C@@H](C(=O)[C@@H](C)[C@@H](O)[C@H](C)[C@@H]1O[C@@H]([C@@H](CC)C(=O)O)CC[C@@H]1C)[C@H]1O[C@]2(C=C[C@@H](NC(=O)C(C)C)[C@]3(CC[C@@](C)([C@H]4CC[C@](O)(CC)[C@H](C)O4)O3)O2)[C@H](C)C[C@@H]1C [(10), C20-dehydroxy-C20-aminosalinomycin N-isobutyramide]		176.0		50.3		70 nM	50.3	20 nM	670 nM	5.3	190 nM	0.3	18.5	700 nM	5.0	70 nM	3520 nM	several times more potent	
CC[C@@H](C(=O)[C@@H](C)[C@@H](O)[C@H](C)[C@@H]1O[C@@H]([C@@H](CC)C(=O)O)CC[C@@H]1C)[C@H]1O[C@]2(C=C[C@H](NC(=O)CCCCl)[C@]3(CC[C@@](C)([C@H]4CC[C@](O)(CC)[C@H](C)O4)O3)O2)[C@H](C)C[C@@H]1C [(12 epi), reference compound]			2500 nM	2.9	7300 nM														
CC[C@@H](C(=O)[C@@H](C)[C@@H](O)[C@H](C)[C@@H]1O[C@@H]([C@@H](CC)C(=O)O)CC[C@@H]1C)[C@H]1O[C@]2(C=C[C@H](NC(=O)c3ccccc3)[C@]3(CC[C@@](C)([C@H]4CC[C@](O)(CC)[C@H](C)O4)O3)O2)[C@H](C)C[C@@H]1C [(15 epi), reference compound]	80 nM	12.5	33 nM	30	1000 nM		2.5		200 nM	5	630 nM	3	1.6		0.9				IC50 (B16-F0 (murine melanoma)): 400 nM; IC50 [5]: 1100 nM
CC[C@@H](C(=O)[C@@H](C)[C@@H](O)[C@H](C)[C@@H]1O[C@@H]([C@@H](CC)C(=O)O)CC[C@@H]1C)[C@H]1O[C@]2(C=C[C@@H](NC(=O)c3ccccc3)[C@]3(CC[C@@](C)([C@H]4CC[C@](O)(CC)[C@H](C)O4)O3)O2)[C@H](C)C[C@@H]1C [(15), C20-dehydroxy-C20-aminosalinomycin N-benzamide]		81.5		27.2		20 nM	81.5	20 nM	280 nM	5.1	50 nM	0.2	32.6	280 nM	5.8	60 nM	1630 nM	several times more potent	
CCOC(=O)N[C@H]1C=C[C@]2(O[C@H]([C@@H](CC)C(=O)[C@@H](C)[C@@H](O)[C@H](C)[C@@H]3O[C@@H]([C@@H](CC)C(=O)O)CC[C@@H]3C)[C@@H](C)C[C@H]2C)O[C@@]12CC[C@@](C)([C@H]1CC[C@](O)(CC)[C@H](C)O1)O2 [(19 epi), reference compound]	60 nM	16	46 nM	22	1000 nM		3		240 nM	4.1	700 nM	3	1.4		1				IC50 (B16-F0 (murine melanoma)): 330 nM; IC50 [5]: 1000 nM
C#CCOC(=O)N[C@@H]1C=C[C@]2(O[C@H]([C@@H](CC)C(=O)[C@@H](C)[C@@H](O)[C@H](C)[C@@H]3O[C@@H]([C@@H](CC)C(=O)O)CC[C@@H]3C)[C@@H](C)C[C@H]2C)O[C@@]12CC[C@@](C)([C@H]1CC[C@](O)(CC)[C@H](C)O1)O2 [(22), C20-dehydroxy-C20-aminosalinomycin N-propargylcarbamate]		322.0		26.4		20 nM	66.0	4.1 nM	300 nM	4.4	50 nM	0.2	26.4	340 nM	3.9	50 nM	1320 nM	tens of times more potent	
CC[C@@H](C(=O)[C@@H](C)[C@@H](O)[C@H](C)[C@@H]1O[C@@H]([C@@H](CC)C(=O)[O-])CC[C@@H]1C)[C@H]1O[C@]2(C=C[C@@H](NC(=O)NCCCCl)[C@]3(CC[C@@](C)([C@H]4CC[C@](O)(CC)[C@H](C)O4)O3)O2)[C@H](C)C[C@@H]1C.[Na+] [(25), 3-chloropropylurea of C20-dehydroxy-C20-aminosalinomycin]		241.1		4500.0		10 nM	135.0	5.6 nM	20 nM	67.5	220 nM	11.0	6.1	180 nM	7.5	0.3 nM	1350 nM	tens of times more potent	preferred effect against a type of cancer cells (cancer cells): preferred effect against biphenotypic leukaemia cells
CC[C@@H](C(=O)[C@@H](C)[C@@H](O)[C@H](C)[C@@H]1O[C@@H]([C@@H](CC)C(=O)O)CC[C@@H]1C)[C@H]1O[C@]2(C=C[C@@H](O)[C@]3(CC[C@@](C)([C@H]4CC[C@](O)(CC)[C@H](C)O4)O3)O2)[C@H](C)C[C@@H]1C [salinomycin]		3.7		29.7		630 nM	3.3	560 nM	210 nM	9.9	480 nM	2.3	4.3	2100 nM	1.0	70 nM	2080 nM		effect on cancer progression in patients [7]: inhibition of cancer progression; side effects in patients [7]: no acute side effects
